Reference: patent EP0013067A1, “Bicyclic beta-lactam antibacterial agents, their use in pharmaceutical compositions, processes for their preparation and intermediates for use in such processes” (BEECHAM GROUP PLC, priority 1978, dated 1980)

Assays:
Assay in all cases: MIC, DST agar + 10% horse blood
Format in all cases: cell-based
[1] = system: Bacillus subtilis A; details: Bacillus subtilis A; DST agar + 10% horse blood; inoculum 0.001 ml of a 10^-2 dilution for G + ve bacteria or a 10^-4 dilution for G - ve organisms; read-out: MIC Agar
Description: (§1) The ninimum inhibitory concentrations (MIC) cf this compound required to inhibit the growth of various bacteria are tabulated balow: […]

[2] = system: Citrobacter freundii E8; details: Citrobacter freundii E8; DST agar + 10% horse blood; inoculum 0.001 ml of a 10^-2 dilution for G + ve bacteria or a 10^-4 dilution for G - ve organisms; read-out: MIC Agar
Description: as §1

[3] = system: E. coli ESS; details: Escherichia coli, inoculum 0.001 ml of a 10^-2 dilution for G + ve bacteria or a 10^-4 dilution for G - ve organisms
Description: as §1

[4] = system: Enterobacter cloacae N1; details: Enterobacter cloacae N1; DST agar + 10% horse blood; inoculum 0.001 ml of a 10^-2 dilution for G + ve bacteria or a 10^-4 dilution for G - ve organisms; read-out: MIC Agar
Description: as §1

[5] = system: Escherichia coli 0111; details: Escherichia coli 0111, inoculum 0.001 ml of a 10^-2 dilution for G + ve bacteria or a 10^-4 dilution for G - ve organisms
Description: as §1

[6] = system: Escherichia coli JT 39; details: JT39; Escherichia coli JT 39; DST agar + 10% horse blood; inoculum 0.001 ml of a 10^-2 dilution for G + ve bacteria or a 10^-4 dilution for G - ve organisms; read-out: MIC Agar
Description: as §1

[7] = system: Klebsiella aerogenes A; details: Klebsiella aerogenes A; DST agar + 10% horse blood; inoculum 0.001 ml of a 10^-2 dilution for G + ve bacteria or a 10^-4 dilution for G - ve organisms; read-out: MIC Agar
Description: as §1

[8] = system: Proteus mirabilis C977; details: Proteus mirabilis C977; DST agar + 10% horse blood; inoculum 0.001 ml of a 10^-2 dilution for G + ve bacteria or a 10^-4 dilution for G - ve organisms; read-out: MIC Agar
Description: as §1

[9] = system: Proteus morganii I580; details: Morganella morganii; Proteus morganii I580; DST agar + 10% horse blood; inoculum 0.001 ml of a 10^-2 dilution for G + ve bacteria or a 10^-4 dilution for G - ve organisms; read-out: MIC Agar
Description: as §1

[10] = system: Proteus rettgeri WM16; details: Providencia rettgeri; Proteus rettgeri WM16; DST agar + 10% horse blood; inoculum 0.001 ml of a 10^-2 dilution for G + ve bacteria or a 10^-4 dilution for G - ve organisms; read-out: MIC Agar
Description: as §1

[11] = system: Proteus vulgaris W091; details: Proteus vulgaris W091; DST agar + 10% horse blood; inoculum 0.001 ml of a 10^-2 dilution for G + ve bacteria or a 10^-4 dilution for G - ve organisms; read-out: MIC Agar
Description: as §1

[12] = system: Pseudomonas aeruginosa A; details: Pseudomonas aeruginosa A; DST agar + 10% horse blood; inoculum 0.001 ml of a 10^-2 dilution for G + ve bacteria or a 10^-4 dilution for G - ve organisms; read-out: MIC Agar
Description: as §1

[13] = system: Salmonella typhimurium CT10; details: Salmonella enterica; Salmonella typhimurium CT10; DST agar + 10% horse blood; inoculum 0.001 ml of a 10^-2 dilution for G + ve bacteria or a 10^-4 dilution for G - ve organisms; read-out: MIC Agar
Description: as §1

[14] = system: Serratia marcescens US20; details: Serratia marcescens US20; DST agar + 10% horse blood; inoculum 0.001 ml of a 10^-2 dilution for G + ve bacteria or a 10^-4 dilution for G - ve organisms; read-out: MIC Agar
Description: as §1

[15] = system: Shigella sonnei MB 11967; details: MB11967, inoculum 0.001 ml of a 10^-2 dilution for G + ve bacteria or a 10^-4 dilution for G - ve organisms
Description: as §1

[16] = system: Staphylococcus aureus 1517; details: Staphylococcus aureus 1517; DST agar + 10% horse blood; inoculum 0.001 ml of a 10^-2 dilution for G + ve bacteria or a 10^-4 dilution for G - ve organisms; read-out: MIC Agar
Description: as §1

[17] = system: Staphylococcus aureus Oxford; details: Staphylococcus aureus Oxford; DST agar + 10% horse blood; inoculum 0.001 ml of a 10^-2 dilution for G + ve bacteria or a 10^-4 dilution for G - ve organisms; read-out: MIC Agar
Description: as §1

[18] = system: Staphylococcus aureus Russell; details: Staphylococcus aureus Russell; DST agar + 10% horse blood; inoculum 0.001 ml of a 10^-2 dilution for G + ve bacteria or a 10^-4 dilution for G - ve organisms; read-out: MIC Agar
Description: as §1

[19] = system: Streptococcus faecalis I; details: Enterococcus faecalis; Streptococcus faecalis I; DST agar + 10% horse blood; inoculum 0.001 ml of a 10^-2 dilution for G + ve bacteria or a 10^-4 dilution for G - ve organisms; read-out: MIC Agar
Description: as §1

[20] = system: Streptococcus pneumoniae CN33; details: Streptococcus pneumoniae CN33; DST agar + 10% horse blood; inoculum 0.001 ml of a 10^-2 dilution for G + ve bacteria or a 10^-4 dilution for G - ve organisms; read-out: MIC Agar
Description: as §1

[21] = system: Streptococcus pyogenes CN10; details: Streptococcus pyogenes CN10; DST agar + 10% horse blood; inoculum 0.001 ml of a 10^-2 dilution for G + ve bacteria or a 10^-4 dilution for G - ve organisms; read-out: MIC Agar
Description: as §1

SMILES	MIC [1]	MIC [2]	MIC [3]	MIC [4]	MIC [5]	MIC [6]	MIC [7]	MIC [8]	MIC [9]	MIC [10]	MIC [11]	MIC [12]	MIC [13]	MIC [14]	MIC [15]	MIC [16]	MIC [17]	MIC [18]	MIC [19]	MIC [20]	also measured
O=C(O)C1=C(CO)SC2CC(=O)N12 (stereo not drawn) [compound 19, Sodium 2-Hydroxymethyl penem-3-carboxylate]	2.5 µg/mL	10 µg/mL	10 µg/mL	50 µg/mL	10 µg/mL	10 µg/mL	10 µg/mL	25 µg/mL	25 µg/mL	50 µg/mL	50 µg/mL	50 µg/mL	10 µg/mL	10 µg/mL	10 µg/mL	25 µg/mL	2.5 µg/mL	2.5 µg/mL	100 µg/mL	1 µg/mL	MIC [21]: 1 µg/mL
CC(=O)OCC1=C(C(=O)O)N2C(=O)CC2S1 (stereo not drawn) [compound 21, Sodium 2-Acetoxymethyl penem-3-carboxylate]	2.5 µg/mL	10 µg/mL	10 µg/mL	100 µg/mL	25 µg/mL	50 µg/mL	10 µg/mL	10 µg/mL	10 µg/mL	50 µg/mL	50 µg/mL	> 100 µg/mL	25 µg/mL	25 µg/mL	50 µg/mL	50 µg/mL	10 µg/mL	10 µg/mL	100 µg/mL	0.5 µg/mL	MIC [21]: 2.5 µg/mL
